According to DBAASP:
Values after ≈ are worked out from the molar mass of the structure shown. Each block holds one molecule with its values, some of them ahead of it.

Assays:
Assay in all cases: ≥ marks a high value that may be exact or a test limit, other limits are often not marked, values filed in µg/mL are converted to µM
[1] = tested on: Escherichia coli ATCC 2592
[2] = tested on: Staphylococcus aureus ATCC 33591
[3] = tested on: Pseudomonas aeruginosa ATCC 10145
[4] = tested on: Candida albicans ATCC 10231
[5] = tested on: Cryptococcus neoformans ATCC 32045
[6] = tested on: Escherichia coli BW25113
[7] = tested on: Escherichia coli JW0368 ΔsbmA
[8] = tested on: Escherichia coli J2210
[9] = tested on: Salmonella enterica subsp. enterica serovar Enteritidis MH91989
[10] = tested on: Escherichia coli JJ2489
[11] = tested on: Escherichia coli JW0013
[12] = tested on: Escherichia coli JW2778 ΔygdD
[13] = tested on: Salmonella typhimurium SL1344
[14] = tested on: Escherichia coli MC1041
[15] = tested on: Pseudomonas aeruginosa H1001
[16] = tested on: Staphylococcus epidermidis ATCC 12228
[17] = tested on: Pseudomonas aeruginosa PAO1
[18] = tested on: Candida albicans
[19] = tested on: Enterococcus faecalis ATCC 29212
[20] = tested on: Salmonella enterica subsp. enterica serovar Typhimurium ATCC 14028
[21] = tested on: Pseudomonas aeruginosa ATCC 27853
[22] = tested on: Staphylococcus aureus ATCC 43300
[23] = tested on: Staphylococcus aureus ATCC 25923
[24] = tested on: Candida parapsilosis CGMCC 2.3989
[25] = tested on: Escherichia coli UB1005
[26] = tested on: Candida tropicalis CGMCC 2.1975
[27] = tested on: Salmonella enterica subsp. enterica serovar Typhimurium C77-31
[28] = tested on: Salmonella enterica subsp. enterica serovar Choleraesuis CVCC 503
[29] = tested on: Candida albicans CGMCC 2.2086
[30] = tested on: Staphylococcus aureus ATCC 29213

SMILES: C[C@H](NC(=O)[C@H](Cc1ccccc1)NC(=O)[C@H](CCCN=C(N)N)NC(=O)[C@H](CCCN=C(N)N)NC(=O)[C@H](C)NC(=O)[C@H](Cc1ccccc1)NC(=O)[C@H](CCCN=C(N)N)NC(=O)[C@H](CCCN=C(N)N)NC(=O)[C@H](C)NC(=O)[C@H](Cc1ccccc1)NC(=O)[C@H](CCCN=C(N)N)NC(=O)[C@H](CCCN=C(N)N)NC(=O)[C@H](C)NC(=O)[C@H](Cc1ccccc1)NC(=O)[C@H](CCCN=C(N)N)NC(=O)[C@H](CCCN=C(N)N)NC(=O)[C@H](C)NC(=O)[C@H](Cc1ccccc1)NC(=O)[C@H](CCCN=C(N)N)NC(=O)[C@H](CCCN=C(N)N)NC(=O)[C@H](C)NC(=O)[C@H](Cc1ccccc1)NC(=O)[C@H](CCCN=C(N)N)NC(=O)[C@H](CCCN=C(N)N)NC(=O)[C@H](C)NC(=O)[C@H](Cc1ccccc1)NC(=O)[C@@H](N)CCCN=C(N)N)C(=O)N[C@@H](CCCN=C(N)N)C(=O)O [RFARRFARRFARRFARRFARRFARRFAR]
MIC [1]: 11.9 µM (≈ 44.5 µg/mL)
MIC [2]: ≥ 47.4 µM
MIC [3]: 16.6 µM (≈ 62 µg/mL)
MIC [4]: 94.7 µM (≈ 354 µg/mL)
MIC [5]: 23.6 µM (≈ 88 µg/mL)

SMILES: C[C@H](NC(=O)[C@H](CCCCN)NC(=O)[C@H](Cc1ccccc1)NC(=O)[C@H](C)NC(=O)[C@H](CCCCN)NC(=O)[C@H](Cc1ccccc1)NC(=O)[C@H](C)NC(=O)[C@H](CCCCN)NC(=O)[C@H](Cc1ccccc1)NC(=O)[C@H](C)NC(=O)[C@H](CCCCN)NC(=O)[C@H](Cc1ccccc1)NC(=O)[C@H](C)NC(=O)[C@H](CCCCN)NC(=O)[C@H](Cc1ccccc1)NC(=O)[C@H](C)NC(=O)[C@H](CCCCN)NC(=O)[C@H](Cc1ccccc1)NC(=O)[C@H](C)NC(=O)[C@H](CCCCN)NC(=O)[C@H](Cc1ccccc1)NC(=O)[C@H](C)NC(=O)[C@H](CCCCN)NC(=O)[C@H](Cc1ccccc1)NC(=O)[C@H](C)NC(=O)[C@H](CCCCN)NC(=O)[C@@H](N)Cc1ccccc1)C(=O)O [FKAFKAFKAFKAFKAFKAFKAFKAFKA]
MIC [1]: 14 µM (≈ 43.8 µg/mL)
MIC [2]: 14 µM (≈ 43.8 µg/mL)
MIC [3]: 6.38 µM (≈ 20 µg/mL)
MIC [4]: 113 µM (≈ 354 µg/mL)
MIC [5]: 28.1 µM (≈ 88 µg/mL)

SMILES: CC(C)C[C@H](NC(=O)[C@H](CCCCN)NC(=O)[C@H](CCCCN)NC(=O)[C@H](CC(C)C)NC(=O)[C@H](CCCN=C(N)N)NC(=O)[C@H](CS)NC(=O)[C@H](C)NC(=O)[C@H](CC(C)C)NC(=O)[C@H](CCCCN)NC(=O)[C@H](CCCCN)NC(=O)[C@@H](N)CC(C)C)C(=O)N[C@@H](C)C(=O)N[C@@H](CS)C(=O)N[C@@H](CCCN=C(N)N)C(N)=O [LKKLACRLKKLACR]
MIC [16]: > 64 µM
MIC [17]: 16 µM (≈ 26.3 µg/mL)
MIC [18]: 45.3 µM (≈ 74.4 µg/mL)
MIC [19]: > 64 µM
MIC [20]: 64 µM (≈ 105 µg/mL)
MIC [21]: 32 µM (≈ 52.6 µg/mL)
MIC [22]: 64 µM (≈ 105 µg/mL)
MIC [23]: > 64 µM
MIC [24]: ≥ 64 µM
MIC [25]: ≥ 32 µM
MIC [26]: 8 µM (≈ 13.1 µg/mL)
MIC [27]: ≥ 32 µM
MIC [28]: ≥ 32 µM
MIC [29]: ≥ 64 µM
MIC [30]: 64 µM (≈ 105 µg/mL)

SMILES: C[C@H](NC(=O)[C@H](CCCCN)NC(=O)[C@H](Cc1ccccc1)NC(=O)[C@H](C)NC(=O)[C@H](CCCCN)NC(=O)[C@H](Cc1ccccc1)NC(=O)[C@H](C)NC(=O)[C@H](CCCCN)NC(=O)[C@H](Cc1ccccc1)NC(=O)[C@H](C)NC(=O)[C@H](CCCCN)NC(=O)[C@H](Cc1ccccc1)NC(=O)[C@H](C)NC(=O)[C@H](CCCCN)NC(=O)[C@H](Cc1ccccc1)NC(=O)[C@H](C)NC(=O)[C@H](CCCCN)NC(=O)[C@@H](N)Cc1ccccc1)C(=O)O [FKAFKAFKAFKAFKAFKA]
MIC [1]: 21.2 µM (≈ 44.5 µg/mL)
MIC [2]: ≥ 238 µM
MIC [3]: ≥ 47.7 µM
MIC [4]: 169 µM (≈ 354 µg/mL)
MIC [5]: 2.7 µM (≈ 5.66 µg/mL)

The remaining lines, values ahead:

MIC [6]: 0.096 µM (≈ 0.203 µg/mL)
MIC [7]: 0.192 µM (≈ 0.406 µg/mL)
MIC [8]: 0.267 µM (≈ 0.565 µg/mL)
MIC [9]: 0.133 µM (≈ 0.281 µg/mL)
MIC [10]: 0.252 µM (≈ 0.533 µg/mL)
MIC [11]: 0.096 µM (≈ 0.203 µg/mL)
MIC [12]: 0.192 µM (≈ 0.406 µg/mL)
MIC [13]: 0.192 µM (≈ 0.406 µg/mL)
MIC [14]: 0.192 µM (≈ 0.406 µg/mL)
SMILES: CC(C)C[C@H](NC(=O)[C@H](CCCN=C(N)N)NC(=O)[C@@H]1CCCN1C(=O)[C@H](CCCN=C(N)N)NC(=O)[C@@H]1CCCN1C(=O)[C@@H]1CCCN1C(=O)[C@H](CCCN=C(N)N)NC(=O)[C@@H]1CCCN1C(=O)[C@H](CCC(N)=O)NC(=O)[C@@H]1CCCN1C(=O)[C@H](CCCCN)NC(=O)[C@H](Cc1ccc(O)cc1)NC(=O)[C@@H](NC(=O)[C@@H]1CCCN1C(=O)[C@H](CCCCN)NC(=O)[C@H](CC(N)=O)NC(=O)[C@H](CC(N)=O)NC(=O)CN)C(C)C)C(=O)O [GNNKPVYKPQPRPPRPRL]

MIC [15]: 0.107 µM (≈ 0.26 µg/mL)
SMILES: CC[C@H](C)[C@H](NC(=O)[C@H](CCCN=C(N)N)NC(=O)[C@H](CCCN=C(N)N)NC(=O)[C@@H]1CCCN1C(=O)[C@@H]1CCCN1C(=O)[C@H](CCCN=C(N)N)NC(=O)[C@@H]1CCCN1C(=O)[C@H](CCCN=C(N)N)NC(=O)[C@@H]1CCCN1C(=O)[C@H](CC(C)C)NC(=O)[C@H](Cc1ccc(O)cc1)NC(=O)[C@@H]1CCCN1C(=O)[C@@H]1CCCN1C(=O)[C@H](CCCCN)NC(=O)[C@H](CC(=O)O)NC(=O)[C@@H](N)C(C)C)C(=O)N[C@@H](Cc1ccc(O)cc1)C(=O)N[C@@H](CC(N)=O)C(=O)N[C@@H](CCCCN)C(=O)NCC(=O)O [VDKPPYLPRPRPPRRIYNKG]

MIC [6]: 0.067 µM (≈ 0.144 µg/mL)
MIC [7]: 0.096 µM (≈ 0.206 µg/mL)
MIC [8]: 0.252 µM (≈ 0.54 µg/mL)
MIC [9]: 0.096 µM (≈ 0.206 µg/mL)
MIC [10]: 0.133 µM (≈ 0.285 µg/mL)
MIC [11]: 0.062 µM (≈ 0.133 µg/mL)
MIC [12]: 0.133 µM (≈ 0.285 µg/mL)
MIC [13]: 0.192 µM (≈ 0.411 µg/mL)
MIC [14]: 0.133 µM (≈ 0.285 µg/mL)
SMILES: CC(C)C[C@H](NC(=O)[C@H](CCCN=C(N)N)NC(=O)[C@@H]1CCCN1C(=O)[C@H](CCCN=C(N)N)NC(=O)[C@@H]1CCCN1C(=O)[C@@H]1CCCN1C(=O)[C@H](CCCN=C(N)N)NC(=O)[C@@H]1CCCN1C(=O)[C@H](CCC(N)=O)NC(=O)[C@@H]1CCCN1C(=O)[C@H](CCCCN)NC(=O)[C@H](Cc1ccc(O)cc1)NC(=O)[C@@H](NC(=O)[C@@H]1CCCN1C(=O)[C@H](CCCN=C(N)N)NC(=O)[C@H](CC(N)=O)NC(=O)[C@H](CC(N)=O)NC(=O)CN)C(C)C)C(=O)O [GNNRPVYKPQPRPPRPRL]

MIC [15]: 0.0575 µM (≈ 0.14 µg/mL)
SMILES: CC[C@H](C)[C@H](NC(=O)[C@H](CCCN=C(N)N)NC(=O)[C@H](CCCN=C(N)N)NC(=O)[C@@H]1CCCN1C(=O)[C@@H]1CCCN1C(=O)[C@H](CCCN=C(N)N)NC(=O)[C@@H]1CCCN1C(=O)[C@H](CCCN=C(N)N)NC(=O)[C@@H]1CCCN1C(=O)[C@H](CC(C)C)NC(=O)[C@H](Cc1ccc(O)cc1)NC(=O)[C@@H]1CCCN1C(=O)[C@@H]1CCCN1C(=O)[C@H](CCCCN)NC(=O)[C@H](CC(=O)O)NC(=O)[C@@H](N)C(C)C)C(=O)N[C@@H](Cc1ccc(O)cc1)C(=O)N[C@@H](CS)C(=O)N[C@@H](CCCN=C(N)N)C(=O)NCC(=O)O [VDKPPYLPRPRPPRRIYCRG]

MIC [15]: 0.0878 µM (≈ 0.22 µg/mL)
SMILES: CC[C@H](C)[C@H](NC(=O)[C@H](CCCN=C(N)N)NC(=O)[C@H](CCCN=C(N)N)NC(=O)[C@@H]1CCCN1C(=O)[C@H](CCCN=C(N)N)NC(=O)[C@H](CCCN=C(N)N)NC(=O)[C@@H]1CCCN1C(=O)[C@H](CCCN=C(N)N)NC(=O)[C@@H]1CCCN1C(=O)[C@H](CC(C)C)NC(=O)[C@H](Cc1ccc(O)cc1)NC(=O)[C@@H]1CCCN1C(=O)[C@@H]1CCCN1C(=O)[C@H](CCCCN)NC(=O)[C@H](CC(=O)O)NC(=O)[C@@H](N)C(C)C)C(=O)N[C@@H](Cc1ccc(O)cc1)C(=O)N[C@@H](CC(N)=O)C(=O)N[C@@H](CCCN=C(N)N)C(=O)NCC(=O)O [VDKPPYLPRPRRPRRIYNRG]
